Series [1] deals with Bacillus subtilis Bs11. The experiment in a line: inhibition zone assay, lethal concentration. It is filed as cell-based. The procedure: (§1) The products of the invention were tested for activity against a variety of test organisms selected to represent a number of different types of pathogens some of them known to be particularly virulent by the inhibition zone assay of Hoffmann et al (1981) Insect Biochem. 11 537-548 which is incorporated herein by reference. Thin agar or agarose plates (8.5 cm diameter) were prepared with 6 ml of rich medium containing 100 ug/ml of streptomycin and 2×10^5 viable cells of a test organism resistant to streptomycin. Wells of […] diameter were punched in the plates and 3 ul of serially diluted samples were placed in the wells. The diameters of the zones of inhibition around the wells were measured after overnight incubation at 30° or 37° C. For each peptide the squares of the zone diameters were plotted against the logarithm of the concentration, and from the slopes and intercepts the lethal concentrations were calculated as described by Hultmark (1983) EMBO J. 2, 571-76 or Hultmark et al (1982) Eur. J. Biochem. 127 207-217 each of which being incorporated herein by reference.
(§2) It was observed during testing that basic peptides often bind to agar plates, but not so much to agarose. Therefore those lethal concentrations determined on agar may, in fact, be substantially higher than the actual lethal concentrations.
(§3) Novel peptides CA(1-8)M(1-18), CA(1-9)M(1-17), CB(1-13)M(1-13), CA(1-17)M(1-9), CA(1-18)M(1-8), M(1-13)CA(1-22) and M(1-13)CA(1-13) were prepared as described above (see Examples 1-6). These novel peptides and CA, CB, and M were tested for activity against a variety of organisms selected to represent a number of different types of pathogens, some of them known to be particularly virulent by the inhibition zone assay of Hoffmann et al (1981), Insect Biochem. 11 537-48. As in Examples 1-6, thin agarose plates were prepared with the respective organisms. The diameters of the zones of inhibition were measured after overnight incubation at 30° C. The lethal concentrations were determined as described above (see Examples 1-6; Hultmark et al articles cited thereat).

Series [2] has as its system Escherichia coli D21. The series is described as follows: inhibition zone assay, lethal concentration. The format is cell-based. As to conditions: for Lethal concentration, D21 = E. coli: Table 3, agarose plates, overnight incubation at 30° C. As to the method: as §1, §2, §3
For series [3], the system named is Streptococcus pyogenes. The series is described as follows: inhibition zone assay, lethal concentration. It is filed as cell-based. As to conditions: for Lethal concentration, Strep = S. pyogenes: Table 3, agarose plates, overnight incubation at 30° C. The procedure: as §1, §2, §3
Series [4] relates to Staphylococcus aureus Cowan I. The experiment in a line: inhibition zone assay, lethal concentration. The format is cell-based. Conditions: for Lethal concentration, Staph = S. aureus Cowan I: Table 3, agarose plates, overnight incubation at 30° C. As to the method:
as §1, §2, §3

The test system of series [5] is Pseudomonas aeruginosa OT97. The series is described as follows: inhibition zone assay, lethal concentration. The format is cell-based. As to conditions: for Lethal concentration, OT97 = P. aeruginosa: Table 3, agarose plates, overnight incubation at 30° C. As to the method:
as §1, §2, §3

Series [6] relates to Xenorhabdus nematophilis Xn21. The experiment in a line: inhibition zone assay, lethal concentration. It is filed as cell-based. As to conditions: Table 2, footnote c: incubation overnight at 37° C. As to the method:
as §1, §2

The subject of series [7] is Staphylococcus haemolyticus. The experiment in a line: inhibition zone assay, lethal concentration. The format is cell-based. As to conditions: Table 2, footnote c: incubation overnight at 37° C. As to the method:
as §1, §2

The test system of series [8] is Candida albicans. The series is described as follows: inhibition zone assay, lethal concentration. The format is cell-based. As to conditions: Table 2, footnote c: incubation overnight at 37° C. The procedure: as §1, §2
For series [9], the system named is Saccharomyces cerevisiae. The experiment in a line: inhibition zone assay, lethal concentration. The format is cell-based. Conditions: Table 2, footnote c: incubation overnight at 37° C. The procedure:
as §1, §2

The subject of series [10] is Sheep Red Cells. The experiment in a line: lysis of sheep red blood cells (lysis assay or SRC plate assay). It is filed as cell-based. As to the method: These values were obtained by either the lysis assay normally used for melittin or by an adaptation of the antibacterial inhibition zone assay of the above-cited Hultmark et al articles to plates with sheep red cells (SRC). With respect to the latter, sterile agarose plates contained 6 ml of medium With 1% agarose, 0.9% NaCl and 10% SRC suspended in Alsevers solution. A dilution series of peptide was applied in 3 mm wells each loaded with 3 μl of the respective samples. The plates were incubated at 30° C. for 24 h, the zones were recorded and LC values calculated as described in the Hultmark et al articles. Clear zones were recorded after a few hours of incubation and the use of such data gave an LC value of the same order as readings after 24 h. This plate assay is faster and more convenient than the lysis assay normally used for melittin.

Series [11] relates to Plasmodium falciparium strain F32 (Tanzania), blood stream forms. The experiment in a line: inhibition of reinvasion of human red cells by malaria parasite. It is filed as cell-based, Plasmodium falciparum. As to conditions: for pIC50: Table 4, P. falciparum, read-out: 50% Reinvasion Inhibition; for antimalarial potency in words: FIG. 1, blood stream form of Plasmodium falciparium. As to the method:
Hybrid peptides CA(1-13)M(1-13) and CA(1-8)M(1-18) were prepared as described above (see Examples 1-6) and were assayed for activity against the blood stream form of Plasmodium falciparium. For comparison the test included cecropins A and B and the frog skin peptides magainin 2 and PGLa.
The blood stream forms of the malaria parasite Plasmodium falciparium, primarily late trophozoites and early schizonts, were assayed by recording the inhibition of the reinvasion of human red cells by the method of Wahlin, B., et al, (1984) Proc. Nat'l Acad. Sci. USA 81, 7912-16, incorporated herein by reference. Quadruplicate microcultures of strain F32 (Tanzania) were incubated for 20 hrs at 37° C. in a complete tissue culture medium, with or without different concentrations of the peptides to be assayed. After acridine orange staining, the percentage of newly infected red cells was scored in a fluorescence microscope. For each culture 40,000 red cells were analysed for parasitic infection. Duplicate assays were run for CA(1-13)M(1-13).

In series [12] the test system is Escherichia coli D22. The experiment in a line: inhibition zone assay, lethal concentration. The format is cell-based. Conditions: Table 2, footnote c: incubation overnight at 37° C. The procedure: as §1, §2
Series [13] relates to Micrococcus luteus Ml11. The series is described as follows: inhibition zone assay, lethal concentration. The format is cell-based. As to conditions: Table 2, footnote c: incubation overnight at 37° C. The procedure: as §1, §2
Series [14] relates to Bacillus megaterium BM11. The series is described as follows: inhibition zone assay, lethal concentration. It is filed as cell-based. As to conditions: Table 2, footnote c: incubation overnight at 37° C. As to the method: as §1, §2
Where [15] appears, read: Table 2, footnote a: incubation overnight at 30° C. as well as at 37° C.
[16] abbreviates: Table 2, footnote c: incubation overnight at 37° C.
Setting [17] is: Table 2, no incubation footnote.

pIC50: −log10 of the molar value. Where no end group is shown, it is not given here. Bounds are passed on as bounds.

For `CC[C@H](C)[C@H](NC(=O)CN)C(=O)NCC(=O)N[C@@H](C)C(=O)N[C@H](C(=O)N[C@@H](CC(C)C)C(=O)N[C@@H](CCCCN)C(=O)N[C@H](C(=O)N[C@@H](CC(C)C)C(=O)N[C@H](C(=O)N[C@H](C(=O)NCC(=O)N[C@@H](CC(C)C)C(=O)N1CCC[C@H]1C(=O)N[C@@H](C)C(=O)N[C@@H](CC(C)C)C(=O)N[C@H](C(=O)N[C@@H](CO)C(=O)N[C@@H](Cc1c[nH]c2ccccc12)C(=O)N[C@H](C(=O)N[C@@H](CCCCN)C(=O)N[C@@H](CCCNC(=N)N)C(=O)N[C@@H](CCCCN)C(=O)N[C@@H](CCCNC(=N)N)C(=O)N[C@@H](CCC(N)=O)C(=O)N[C@@H](CCC(N)=O)C(N)=O)[C@@H](C)CC)[C@@H](C)CC)[C@@H](C)O)[C@@H](C)O)C(C)C)C(C)C` [M(1-26), Melittin], the “Lethal concentration, Bacillus subtilis Bs11 (Medium E)” value in series [1] (Table 2, Medium E, no incubation footnote) is 0.3 µM. The “Lethal concentration, Bacillus subtilis Bs11” value in series [1] (setting [15]) came out at 0.2 µM. In addition, the “Lethal concentration, Bs11 = B. subtilis” value in series [1] (Table 3, agarose plates, overnight incubation at 30° C.) amounted to 0.2 µM. In addition, in [1] (Table 3, medium E, agarose plates, overnight incubation at 30° C.), the “Lethal concentration, Bs11 + ME = B. subtilis, plates prepared with medium E” value came to 0.3 µM. Besides, in [2] (setting [15]), the “Lethal concentration, Escherichia coli D21” value is 0.8 µM. Besides, the “Lethal concentration, D21 = E. coli” value in series [2] was 0.8 µM. Further, the “Lethal concentration, Streptococcus pyogenes” value in series [3] (setting [15]) was 0.5 µM. Further, in series [3], the “Lethal concentration, Strep = S. pyogenes” value worked out at 0.5 µM. Further, in series [4] (setting [15]), the “Lethal concentration, Staphylococcus aureus Cowan I” value came out at 0.2 µM. In addition, in series [4], the “Lethal concentration, Staph = S. aureus Cowan I” value came to 0.2 µM. Moreover, the “Lethal concentration, Pseudomonas aeruginosa OT97” value in series [5] (setting [15]) turned out to be 3 µM. Also, the “Lethal concentration, OT97 = P. aeruginosa” value in series [5] stood at 3 µM. The “Lethal concentration, Xenorhabdus nematophilis Xn21” value in [6] fell in the range of 9 to 50 µM. In [7], the “Lethal concentration, Staphylococcus haemolyticus” value was 0.3 µM. The “Lethal concentration, Candida albicans” value in series [8] was found to be 150 µM. Moreover, in [9], the “Lethal concentration, Saccharomyces cerevisiae” value worked out at 10 µM. Moreover, the “Lethal concentration, Sheep Red Cells” value in series [10] (Table 2, footnote b: incubation overnight at 30° C.) lay within 4 to 8 µM; in series [10] (setting [16]), 4 to 6 µM. Moreover, the “Lethal concentration, SRC = Sheep Red Cells” value in series [10] (Table 3) fell in the range of 4 to 8 µM.
Cecropin P-1: in [11], the pIC50 was 4.05.
For KWKLFKKIGIGAVLKVLT-NH2 [CA(1-8)M(1-10)], in series [10] (setting [17]), the “Lethal concentration, Sheep Red Cells” value was above 600 µM.
The same measure, in the same setting: for KWKLFKKLKVLTTGL-NH2 [CA(1-7)M(6-13)] the value was above 500 µM.
With KWKLFKKVLKVLTTG-NH2 [CA(1-7)M(5-12)], the “Lethal concentration, Sheep Red Cells” value in series [10] (setting [17]) was above 500 µM.
With “KWKVFKKIEKMGRNIRNGIVKAGPAIAVLGEAKAL-NH2 [CB(1-35), Cecropin B]”, in series [11], the “antimalarial potency in words” value is “about as potent as Mag” and the pIC50 was 3.96. The “Lethal concentration, D21 = E. coli” value in [2] was 0.3 µM. Also, in series [3], the “Lethal concentration, Strep = S. pyogenes” value was determined as 12 µM. For the same molecule, the “Lethal concentration, Staph = S. aureus Cowan I” value in [4] is 200 µM. Besides, the “Lethal concentration, OT97 = P. aeruginosa” value in series [5] came out at 1 µM.
PGLa [PGL^a]: in [11], the “antimalarial potency in words” value is recorded as “intermediate activity” and the pIC50 was 4.40.
Regarding “WNPFKELEKVGQRVRDAVISAGPAVATVAQATALAK-NH2 [CD(2-37), Cecropin D]”, the “Lethal concentration, Bacillus subtilis Bs11” value in [1] (setting [16]) came to 100 µM. The “Lethal concentration, Escherichia coli D21” value in series [2] (setting [16]) was found to be 3.6 µM. Also, the “Lethal concentration, Pseudomonas aeruginosa OT97” value in series [5] (setting [16]) was 90 µM. Also, in series [12], the “Lethal concentration, Escherichia coli D22” value was found to be 0.6 µM. In series [13], the “Lethal concentration, Micrococcus luteus Ml11” value was 12 µM. In series [14], the “Lethal concentration, Bacillus megaterium BM11” value was found to be 30 µM.
For the molecule magainin 2, the pIC50 in [11] was 4.10.

These data come from patent US5714467A, “Antibacterial and antimalarial hybrid peptides” (The Rockefeller University, priority 1993, dated 1998).
